Measured values as given in patent US20230233538A1, “COMPOSITION FOR TREATING CORONAVIRUS DISEASE-19, COMPRISING PHENANTHROINDOLIZIDINE AND PHENANTHROQUI[…] DERIVATIVES, OPTICAL ISOMER THEREOF, OR PHARMACEUTICALLY ACCEPTABLE SALTS THEREOF AS ACTIVE INGREDIENT” (priority 2020, published 2023).
Where two headings read alike, the source gives them in different places.

Key:
[1] = test system: Vero CCL-81 cells
[2] = in vitro; settings: African green monkey, Cytotoxic Concentration 50 (CC50)
[3] = test system: SARS-CoV-2; experiment: microbe, parasite or virus in culture; assay type: cell-based; settings: for EC50: read-out: Effective Concentration 50 (EC50), 50% virus proliferation inhibitory concentration
[4] = Severe acute respiratory syndrome coronavirus 2, 48 h

Row | Structure (SMILES) | Selectivity Index (SI) [1] | CC50 [2] [µM] | EC50 [3, 4] [µM] | fold greater effect (virus proliferation inhibitory ability) compared to Remdesivir [3] | CC50 ([1]; African green monkey) [µM] | EC50 [3] [µM]
1 | COc1cc2c3c(c4ccc(NS(C)(=O)=O)cc4c2cc1OC)CN1CCC[C@@H]1C3 [Compound 1, (R)-N-(2,3-dimethoxy-9,11,12,13,13a,14-hexahydrodibenzo-[f,h]pyrrolo[1,2-b]isoquinolin-6-yl)methanesulfonamide] | 52 | 1.82 | 0.035 |  |  | 
2 | COc1cc2c3c(c4ccc(NS(C)(=O)=O)cc4c2cc1OC)CN1CCCC[C@@H]1C3 [Compound 2, (R)-N-(2,3-dimethoxy-11,12,13,14,14a,15-hexahydro-9H-dibenzo[f,h]pirido[1,2-b]isoquinolin-6-yl)methanesulfonamide] | 10 | 0.126 | 0.013 | ~1,700 fold |  | 
3 | COC(=O)Nc1ccc2c3c(c4cc(OC)c(OC)cc4c2c1)CC1CCCCN1C3 (centres unmarked) [Compound 3, methyl(2,3-dimethoxy-11,12,13,14,14a,15-hexahydro-9H-dibenzo[f,h]pirido[1,2-b]isoquinolin-6-yl)carbamate] | 19 | 0.317 | 0.017 | ~1,300 fold |  | 
4 | CCC(CC)COC(=O)[C@H](C)N[P@](=O)(OC[C@H]1O[C@@](C#N)(c2ccc3c(N)ncnn23)[C@H](O)[C@@H]1O)Oc1ccccc1 [Remdesivir, reference compound] | 7.8 | 172 | 22 |  | 172 | 22.1
5 | COc1ccc2c3c(c4cc(OC)c(OC)cc4c2c1)C[C@H]1CCCN1C3 [antofine, reference compound] | 24 | 0.872 |  |  |  | 0.037
6 | COc1ccc2c3c(c4cc(OC)c(OC)cc4c2c1)C[C@H]1CCCCN1C3 [cryptopleurin, reference compound] |  |  |  |  |  | 0.011
